Experimental data: patent US10688119B2, “Inhibitors of PCSK9 for treatment of lipoprotein metabolism disorders” (Aarhus Universitet, priority 2015, dated 2020)
Entries after “also recorded” stand apart in the source; their conditions may differ. Where two headings read alike, the source gives them in different places. Values belong to the molecule of their own block, whether it stands above or below them.

How the values were obtained:
[1] = heparin affinity chromatography of PCSK9 and variants; assay type: binding; details: conditioned media, Heparin Sepharose CL-6B beads
Protocol: Purified PCSK9 was loaded onto a 5 ml HiTrap Heparin HP column (GE Healthcare) in PBS. The column was connected to an Äkta Prime and washed with 5 column volumes of 10 mM NaH2PO4 (pH 7.4). PCSK9 was eluted using a linear gradient of 10 mM NaH2PO4 (pH 7.4) and 2 M NaCl and fractions were analyzed by SDS-PAGE. Based on the measured conductivity, the elution profile was transformed to a function of NaCl concentration using the transformation coefficient 0.065 mS/mM NaCl. PCSK9 was retained on the heparin column and eluted at a NaCl concentration of approximately 500 mM (FIG. 2E), indicating a strong and highly specific interaction with heparin.
(§1) In a different experiment, conditioned media from HepG2 cells were incubated with Heparin Sepharose CL-6B beads (GE Healthcare) in 10 mM NaH2PO4 (binding buffer). Following overnight incubation on a rotor at 4⊐ C, beads were washed in binding buffer before batch elution of heparin bound proteins in increasing concentration of NaCl. PCSK9 in input, flow through, and elution fractions were evaluated by Western blotting.
as §1, with “Conditioned” for “In a different experiment, conditioned”, “CHO” for “HepG2”, “cells transfected with PCSK9 variants of interest” for “cells”, “4° C.,” for “4⊐ C,”

LDLR in HepG2 cells [2] = experiment: LDLR degradation in HepG2 cells induced by PCSK9 WT or mutant; assay type: cell-based, human; details: 10 nM PCSK9, 18 hours
Protocol: (§2) Purified PCSK9 variants were tested in a cell assay to test their ability to induce degradation of LDLR compared to wild-type PCSK9. Induction of LDLR degradation was analyzed by incubation of HepG2 cells with wild type PCSK9 (WT) or the above PCSK9 mutants and LDLR levels were assessed by Western blotting. HepG2 cells were seeded at a density 250.000 cells per well in 12-well plates. […] Cells were harvested and lysed following 18 hours incubation and LDLR levels were assessed by Western blotting and quantification by densitometry.

LDLR in liver = experiment: liver LDLR levels in mice after intravenous PCSK9 (Western blot); assay type: in vivo, mice (BALB6/cJRj); details: for liver LDLR level / PCSK9 induced degradation of LDLR in vivo: 1 hour after PCSK9 10 μg, heparin 50 U or suramin 300 μg co-injected, heparinase I 30 U infused before
Protocol: To test the effect of enzymatic removal of heparan sulfate GAGs on PCSK9 activity in vivo 10-12 week-old male BALB6/cJRj mice were infused with heparinase I (30 U) administered through a tail vein catheter 5 min prior injection of PCSK9 (10 μg). In control mice the heparinase injection and/or the PCSK9 injection were replaced with an injection of 0.9% saline. During heparinase infusion, mice were lightly anaesthetized with isoflurane continuously administered through a mask.
Mice (BALB6/cJRj) were subjected to a single intravenous administration (tail vein) of 10 μg human recombinant PCSK9 alone or in combination with heparin (50 U). One hour post injection mice were sacrificed and liver tissues were collected.

LDLR in HepG2 cells [3] = experiment: LDLR levels in HepG2 cells by Western blot/densitometry (PCSK9 induced LDLR degradation)
Protocol: as §2
The PCSK9 inhibitory effect of overnight incubation with suramin (0-200 μg/ml) was tested in HepG2 cells (FIG. 9 A-B).

apoE−/− mice = details: 4-week treatment, cited from earlier work
J774 macrophages = tested on: J774 macrophages; design: dose or concentration left out as unconfirmed; details: cited from earlier work
PCSK9 = PCSK9 (Homo sapiens, UniProt Q8NBP7); experiment: Microscale Thermophoresis (MST) equilibrium binding to PCSK9; details: 100 nM labelled PCSK9, PBS+0.05% Tween-20; for Kd: read-out: KD (affinity for PCSK9, MST)
Protocol: PCSK9 was labeled using the MO-L003 Monolith Blue-NHS labeling kit (NanoTemper Technologies) and a labeling efficiency of 1:1 molar ratio of protein to dye was achieved. PCSK9 was applied at a final concentration of 100 nM. […] MST measurements were performed in standard-treated capillaries (NanoTemper Technologies) on a Monolith NT.115 instrument (NanoTemper Technologies) using 20% LED and 80% MST power. Laser on and off times were 5 s and 35 s, respectively. Negative controls were performed using 100 nM of labelled PCSK9 in MST buffer in all 16 capillaries under the same conditions as mentioned above. […] For each binding partner, the sigmoidal dose-response curves were fitted with GraphPad Prism 6 to yield an average KD value.

HepG2 cells = experiment: uptake of Bodipy-labelled LDL particles in HepG2 cells; assay type: cell-based, human; details: suramin 200 μg/ml overnight, then 4 hours 10 ng/ml Bodipy LDL
Protocol: FIG. 12: Bar graphs showing the relative fluorescence signal in HepG2 cells after overnight incubation with suramin (200 μg/ml) following 4 hours incubation with 10 ng/ml LDL particles labeled with fluorescence dye Bodipy.

[4] = tested on: cell surface PCSK9 on HepG2 cells; experiment: surface PCSK9 immunostaining of non-permeabilized HepG2 cells stably expressing PCSK9; assay type: cell-based, human; details: heparinase I 0.0002 UN/ml, 1 h
Protocol: We speculated that HSPG might be involved in the capture of PCSK9. Thus, we treated human hepatocyte-derived HepG2 cells stably expressing PCSK9 with heparinase I. The enzyme heparinase I cleaves heparan sulfate GAG chains at the 1,4 O-linkage between uronic acid and D-glucosamine, thereby removing cell surface heparan sulfate chains.
HepG2 cells stably transfected with PCSK9 were seeded at 50.000 cells per coverslip and incubated overnight before addition of heparinase I (Sigma Aldrich/H2519) in PBS (0.0002 UN/ml) or PBS alone. Cells were incubated for 1 h. at 37⊐ C, before fixation in 4% paraformaldehyd and immunostaining of non-permeabilized cells with primary and secondary antibodies. Nuclei were visualized with Hoechst dye (Sigma Aldrich). Images were acquired on a Zeiss LSM780.

[5] = target: T1, R93R96R97R104R105H139 PCSK9 mutant and variants (Homo sapiens, UniProt Q8NBP7, H139A/R104A/R105A/R93A/R96A/R97A); experiment: immunoprecipitation of 35S-mutant PCSK9 and PCSK9 variants; assay type: binding; details: 500 μl conditioned hybridoma media
T1 construct: expressed in transfected cells
Protocol: Western blot of GAPDH is shown as loading control. (B) Western Blot showing LDLR levels in liver of mice 1 hour afterintravenous administration of 10 μg PCSK9 alone or in combination with 50 U Heparin. 50 μg membrane preparations were loaded. As control is shown Western Blot for sortilin, a PCSK9 receptor previously shown not to be target of PCSK9 induced degradation. (C) Quantification of B) Bands were quantified by densitometry and dot plot show the individual level of each sample in percent of vehicle (0.9% NaCl) injected controls with mean values and SEM. […] (D) Autoradiography (16 h exposure) showing immunoprecipitation of native human ^35S labeled PCSK9 by serum (1 μl) from three rats immunized with DNA encoding rat PCSK9 with human HSPG binding domain. As negative controls were used preimmune serum from the animals. (E) Western Blot showing LDLR in HepG2 cells after overnight incubation with preimmune or immune IgG (1 μg/ml). […] (F) Autoradiography (16 h exposure) showing immunoprecipitation of human ^35S-PCSK9 by 24 individual mAbs (500 μl conditioned hybridoma media) selected in ELISA screening performed by Aldevron. […] (G) Bar graphs showing LDLR levels (average of 2-4 experiments with SEM) in HepG2 cells incubated with mAbs (1:10 dilution of conditioned hybridoma media) as analysed by Western Blot. Twelve individual mAb clones give an approximately two-fold increase LDLR. (H) Autoradiography (16 h exposure) showing immunoprecipitation of human ^35S-mutant PCSK9 (with R93R96R97R104R105H139 mutated to alanine residues) by 12 individual mAbs (500 μl conditioned hybridoma media) all showing PCSK9 inhibitory effect. As control was used a polyclonal antibody (pAb, AF3888 from R&D systems). […] As control was used R&D Systems AF3888 (pAb).
These 12 clones were tested to see whether they can bind an R93R96R97R104R105H139 PCSK9 mutant (FIG. 8H).

[6] = suramin 50 and PPADS 25 mg·kg-1·day-1

Sequence of PCSK9 (Q8NBP7 153-692): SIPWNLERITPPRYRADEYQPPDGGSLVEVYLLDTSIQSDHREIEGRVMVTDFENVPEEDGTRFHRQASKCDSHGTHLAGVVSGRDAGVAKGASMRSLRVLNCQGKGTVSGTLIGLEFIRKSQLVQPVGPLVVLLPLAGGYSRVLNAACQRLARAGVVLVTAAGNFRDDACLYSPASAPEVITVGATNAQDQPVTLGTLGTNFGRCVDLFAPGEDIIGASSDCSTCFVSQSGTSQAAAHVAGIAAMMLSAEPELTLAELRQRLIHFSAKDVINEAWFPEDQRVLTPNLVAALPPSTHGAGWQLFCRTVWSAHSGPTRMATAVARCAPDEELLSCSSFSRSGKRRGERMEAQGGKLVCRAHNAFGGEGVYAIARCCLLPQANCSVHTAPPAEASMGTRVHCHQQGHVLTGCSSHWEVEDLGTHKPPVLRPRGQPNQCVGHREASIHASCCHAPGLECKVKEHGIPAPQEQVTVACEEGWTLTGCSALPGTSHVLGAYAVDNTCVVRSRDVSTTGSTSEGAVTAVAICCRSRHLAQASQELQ

Molecule: Mutant R93: PCSK9 alanine substitution variant
binding to heparin (affinity chromatography) [1]: less affinity for heparin

Molecule: WT PCSK9: wild type human PCSK9 (SEQ ID NO: 1)
LDLR levels in HepG2 cells incubated with PCSK9 variant (LDLR in HepG2 cells [2]): significantly lower levels of LDLR | binding to heparin (affinity chromatography) [1]: bound heparin Sepharose | LDLR level in liver in percent of vehicle injected controls (LDLR in liver; 1 hour after intravenous 10 μg PCSK9 alone or with 50 U Heparin, n=7 mice/group): 24.0±4.04%

Molecule: CO[C@H]1O[C@H](COS(=O)(=O)O)[C@@H](O[C@@H]2O[C@@H](C(=O)O)[C@@H](O[C@H]3O[C@H](COS(=O)(=O)O)[C@@H](O[C@@H]4O[C@H](C(=O)O)[C@@H](O[C@H]5O[C@H](COS(=O)(=O)O)[C@@H](O)[C@H](O)[C@H]5NS(=O)(=O)O)[C@H](O)[C@H]4O)[C@H](OS(=O)(=O)O)[C@H]3NS(=O)(=O)O)[C@H](O)[C@H]2OS(=O)(=O)O)[C@H](O)[C@H]1NS(=O)(=O)O [Arixtra, Fondaparinux]
LDLR level in HepG2 cells (LDLR in HepG2 cells [3]; Arixtra 25-250 μg/ml, 24 h): elevated level of LDLR | LDLR level in HepG2 cells (LDLR in HepG2 cells [3]; Arixtra 25-250 μg/ml, 24 h, listed as Fondaparinux): increased levels of LDLR

Molecule: Mutant R93R104R105H139A: PCSK9 alanine substitution variant
binding to heparin (affinity chromatography) [1]: do not bind heparin; also recorded: did not bind to heparin

Molecule: Cc1nc(N=Nc2ccc(S(=O)(=O)O)cc2S(=O)(=O)O)c(COP(=O)(O)O)c(C=O)c1O [PPADS, pyridoxal-phosphate-6-azophenyl-2′-4′-disulphonic acid]
plaque size (apoE−/− mice; suramin 50 and PPADS 25 mg·kg-1·day-1, listed as PPDAS): reduce plaque size | plaque size (apoE−/− mice; [6]): reduces plaque size | block of UDP effect on iNOS and interleukin-6 (J774 macrophages): blocked

Molecule: Cc1ccc(C(=O)Nc2ccc(S(=O)(=O)O)c3cc(S(=O)(=O)O)cc(S(=O)(=O)O)c23)cc1NC(=O)c1cccc(NC(=O)Nc2cccc(C(=O)Nc3cc(C(=O)Nc4ccc(S(=O)(=O)O)c5cc(S(=O)(=O)O)cc(S(=O)(=O)O)c45)ccc3C)c2)c1 [suramin]
plaque size (apoE−/− mice; suramin 50 and PPADS 25 mg·kg-1·day-1, listed as Suramin): reduce plaque size | plaque size (apoE−/− mice; [6]): reduces plaque size | LDLR level compared with statins (LDLR in HepG2 cells [3]; 100 μM suramin vs mevastatin and simvastatin, 24 and 48 hours): higher level of LDLR that cells incubated with statins | LDLR level up regulated (LDLR in HepG2 cells [3]; suramin 200 μg/ml, overnight): 15 times | block of UDP effect on iNOS and interleukin-6 (J774 macrophages): blocked | Kd (PCSK9): 190 µM | uptake of fluorescently labelled LDL (HepG2 cells): increased cellular uptake of fluorescently labelled LDL particles; also recorded: increases the uptake of LDL two-fold | liver LDLR level / PCSK9 induced degradation of LDLR in vivo (LDLR in liver): significantly higher level of LDLR

B1: heparinase I: enzyme that cleaves heparan sulfate GAG chains (Sigma Aldrich/H2519) (protein, UniProt Q05819 22-384, looked up)
Heparin lyase I: QQKKSGNIPYRVNVQADSAKQKAIIDNKWVAVGINKPYALQYDDKLRFNGKPSYRFELKAEDNSLEGYAAGETKGRTELSYSYATTNDFKKFPPSVYQNAQKLKTVYHYGKGICEQGSSRSYTFSVYIPSSFPDNATTIFAQWHGAPSRTLVATPEGEIKTLSIEEFLALYDRMIFKKNIAHDKVEKKDKDGKITYVAGKPNGWKVEQGGYPTLAFGFSKGYFYIKANSDRQWLTDKADRNNANPENSEVMKPYSSEYKTSTIAYKMPFAQFPKDCWITFDVAIDWTKYGKEANTILKPGKLDVMMTYTKNKKPQKAHIVNQQEILIGRNDDDGYYFKFGIYRVGNSTVPVTYNLSGYSETAR
intensity of surface PCSK9 staining [4]: marked decrease in the intensity of surface PCSK9 staining | liver LDLR level / PCSK9 induced degradation of LDLR in vivo (LDLR in liver): completely protected LDLR from PCSK9-induced degradation; also recorded: completely inhibits PCSK9 induced degradation of LDLR

Now from value to molecule, other results behind:

KD (affinity for PCSK9, MST) (PCSK9): no affinity
Molecule: dextran [non-sulfated dextran]

Kd (PCSK9): 180 µM
Molecule: dextran sulphate [dextran sulfate]
LDLR level in HepG2 cells (LDLR in HepG2 cells [3]; dextran sulphate 0-200 μg/ml, 24 hour): concentration dependent increase of LDLR | LDLR level in HepG2 cells (LDLR in HepG2 cells [3]; dextran sulphate 0-200 μg/ml, 24 hour, listed as dextran sulphate): potently increase the cellular level of LDLR | plateau of cellular LDLR compared to vehicle control (LDLR in HepG2 cells [3]; dose-dependent, HepG2 cells): around 400%

binding of R93R96R97R104R105H139 PCSK9 mutant (immunoprecipitation) [5]: not able to bind this mutant
B2: mAb 8HA: rat monoclonal antibody against the HSPG binding domain; VH SEQ ID NO: 9, VK SEQ ID NO: 3 (antibody, V domains shown)
VH: QVTLKESGPGILQPSQTLSLTCSFSGFSLSSSGICVSWIRQPSGKGLEWLATICWEDSKGYNPSLKNRLTISKDTSNNQALLRITSVDTADTAIYYCARVYYWYFDFWGPGTMVTVSS
VL: DIVMTQSPSLLSASVGDRVTLSCKGSQNINNYLAWYQQKLGEAPKLLIYNTNSLQTGIPSRFSGSGSGTDCTLTIRSLQPEDVATYFCYQYNNGNTFGGGTKLELK
increase of cellular LDLR (LDLR in HepG2 cells [3]; mAbs, 1:10 dilution of conditioned hybridoma media): approximately two fold
